Source: ChEMBL document CHEMBL3044922, “N 1-{4-[(10S)-Dihydroartemisinin-10-oxyl]}phenylmethylene-N 2-(2-methylquinoline-4-yl)hydrazine derivatives as antiplasmodial falcipain-2 inhibitors” (Med Chem Res, 2012)

Columns and labels:
[1] = target: T1, Falcipain 2 (Plasmodium falciparum) (UniProt Q9N6S8); experiment: Inhibition of Plasmodium falciparum recombinant falcipain 2 expressed in Escherichia coli using Z-Leu-Arg-AMC as substrate at 10 uM incubated for 30 min prior to substrate addition measured for 30 min by fluorometric analysis
T1 sequence (whole entry): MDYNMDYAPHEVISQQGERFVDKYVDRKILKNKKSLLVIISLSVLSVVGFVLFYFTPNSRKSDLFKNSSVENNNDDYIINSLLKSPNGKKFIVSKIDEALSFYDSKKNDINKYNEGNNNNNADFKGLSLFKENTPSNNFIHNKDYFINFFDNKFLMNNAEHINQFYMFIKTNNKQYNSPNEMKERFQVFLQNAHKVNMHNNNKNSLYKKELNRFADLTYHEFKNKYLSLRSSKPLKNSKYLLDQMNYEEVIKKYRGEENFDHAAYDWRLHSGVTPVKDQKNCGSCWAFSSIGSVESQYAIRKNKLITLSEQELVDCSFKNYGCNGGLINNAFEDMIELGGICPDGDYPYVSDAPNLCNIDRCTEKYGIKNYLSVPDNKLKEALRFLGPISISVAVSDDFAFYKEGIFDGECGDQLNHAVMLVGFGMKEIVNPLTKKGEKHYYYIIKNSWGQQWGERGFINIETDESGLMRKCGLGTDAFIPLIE

Falcipain 2 = target: T2, Falcipain 2 (Plasmodium falciparum, UniProt Q9N6S8); experiment: Inhibition of Plasmodium falciparum recombinant falcipain 2 expressed in Escherichia coli using Z-Leu-Arg-AMC as substrate incubated for 30 min prior to substrate addition measured for 30 min by fluorometric analysis
T2 sequence (Q9N6S8 whole entry): T1 sequence (whole entry)

Row | Structure (SMILES) | inhibition [1] | IC50 (Falcipain 2)
1 | Cc1cc(N/N=C/c2ccc(O[C@H]3O[C@@H]4O[C@@]5(C)CC[C@H]6[C@H](C)CC[C@@H]([C@H]3C)[C@@]46OO5)cc2)c2cccc(Br)c2n1 | 94.1% | 0.84 µM
2 | Cc1cc(N/N=C/c2ccc(O[C@H]3O[C@@H]4O[C@@]5(C)CC[C@H]6[C@H](C)CC[C@@H]([C@H]3C)[C@@]46OO5)cc2)c2cc(Cl)ccc2n1 | 88.2% | 0.15 µM
3 | Cc1cc(N/N=C/c2ccc(O[C@H]3O[C@@H]4O[C@@]5(C)CC[C@H]6[C@H](C)CC[C@@H]([C@H]3C)[C@@]46OO5)cc2)c2cc(Br)ccc2n1 | 89.8% | 0.26 µM
4 | COc1ccc2nc(C)cc(N/N=C/c3ccc(O[C@H]4O[C@@H]5O[C@@]6(C)CC[C@H]7[C@H](C)CC[C@@H]([C@H]4C)[C@@]57OO6)cc3)c2c1 | 93.7% | 0.29 µM
5 | CC(C)C[C@H](NC(=O)[C@H]1O[C@@H]1C(=O)O)C(=O)NCCCCN=C(N)N [E-64] | 92% | 0.02 µM
6 | Cc1cc(N/N=C/c2ccc(O[C@H]3O[C@@H]4O[C@@]5(C)CC[C@H]6[C@H](C)CC[C@@H]([C@H]3C)[C@@]46OO5)cc2)c2c(Cl)ccc(C)c2n1 | 79.4% | 0.39 µM
7 | CCc1cccc2c(N/N=C/c3ccc(O[C@H]4O[C@@H]5O[C@@]6(C)CC[C@H]7[C@H](C)CC[C@@H]([C@H]4C)[C@@]57OO6)cc3)cc(C)nc12 | 85.1% | 0.52 µM
8 | Cc1cc(N/N=C/c2ccc(O[C@H]3O[C@@H]4O[C@@]5(C)CC[C@H]6[C@H](C)CC[C@@H]([C@H]3C)[C@@]46OO5)cc2)c2cccc(C)c2n1 | 84.3% | 2.28 µM
9 | Cc1cc(N/N=C/c2ccc(O[C@H]3O[C@@H]4O[C@@]5(C)CC[C@H]6[C@H](C)CC[C@@H]([C@H]3C)[C@@]46OO5)cc2)c2ccccc2n1 | 94.1% | 0.89 µM
10 | Cc1cc(N/N=C/c2ccc(O[C@H]3O[C@@H]4O[C@@]5(C)CC[C@H]6[C@H](C)CC[C@@H]([C@H]3C)[C@@]46OO5)cc2)c2cc(F)ccc2n1 | 88.6% | 0.67 µM
11 | Cc1cc(N/N=C/c2ccc(O[C@H]3O[C@@H]4O[C@@]5(C)CC[C@H]6[C@H](C)CC[C@@H]([C@H]3C)[C@@]46OO5)cc2)c2ccc(C)c(C)c2n1 | 79.4% | 0.84 µM
12 | Cc1cc(N/N=C/c2ccc(O[C@H]3O[C@@H]4O[C@@]5(C)CC[C@H]6[C@H](C)CC[C@@H]([C@H]3C)[C@@]46OO5)cc2)c2ccc(Cl)c(C)c2n1 | 82.6% | 0.21 µM
13 | Cc1cc(N/N=C/c2ccc(O[C@H]3O[C@@H]4O[C@@]5(C)CC[C@H]6[C@H](C)CC[C@@H]([C@H]3C)[C@@]46OO5)cc2)c2ccc(Cl)cc2n1 | 88.4% | 0.17 µM
14 | Cc1ccc2nc(C)cc(N/N=C/c3ccc(O[C@H]4O[C@@H]5O[C@@]6(C)CC[C@H]7[C@H](C)CC[C@@H]([C@H]4C)[C@@]57OO6)cc3)c2c1 | 87.2% | 0.78 µM
15 | Cc1cc(N/N=C/c2ccc(O[C@H]3O[C@@H]4O[C@@]5(C)CC[C@H]6[C@H](C)CC[C@@H]([C@H]3C)[C@@]46OO5)cc2)c2cccc(F)c2n1 | 84.7% | 0.28 µM
